Data set [1] is described as follows: Hydrodynamic radius and size distribution of micelles by dynamic light scattering (DLS). It is filed as physicochemical. The settings on record: for Rh (nm), hydrodynamic radius of micelles: 1.0 wt % stated for M-/O-XMAs (FIG. 37). The method, then: A method for measuring the radius of a micelle is not particularly limited, but a method well known in the art may be used, and for example, the measurement may be performed using a dynamic light scattering (DLS) experiment.
(§1) Specifically, the critical micellar concentration (CMC) was measured using fluorescence staining and diphenylhexatriene (DPH), and the hydrodynamic radii (Rh) of the micelles formed by agents were measured through a dynamic light scattering (DLS) experiment. The measured results are shown in Tables 1 and 2, compared with a conventional amphiphilic molecule (detergent), DDM.

Data set [2] concerns the target T1, human β2 adrenergic receptor (β2AR) (Homo sapiens, UniProt P07550).
T1 construct: made in house
In words: [3H]-dihydroalprenolol radioligand binding of β2AR purified in detergent. Conditions: 10 nM [3H]-DHA, 30 minutes, room temperature. The method, then: An activation degree of a receptor (mBBr-β2AR) purified by DDM or XMAs was measured by [^3H]-dihydroalprenolol ([^3H]-DHA) binding.
Specifically, a radioligand binding assay was performed by the following method. β2AR was purified in the presence of 0.1% DDM. After β2AR was reloaded into an M1 Flag column in the presence of 2 mM CaCl2, a DDM (0.1%)-XMA (0.2%) buffer mixture was prepared in a ratio of 50:50, 20:80, 10:90, 5:95 or 0:100. The receptor was eluted in 20×CMC XMA with 5 mM EDTA and 0.2 mg/ml of a free Flag peptide. 0.1 pmol purified β2AR solubilized in DDM, P-XMA-C11, P-XMA-C12, M-XMAs or O-XMAs was incubated with 10 nM of radioactive DHA [^3H]-dihydroalprenolol (DHA) for 30 minutes at room temperature. The mixture was loaded into a G-50 column, and a flow-through was collected with a binding buffer (20 mM HEPES pH 7.5, supplemented with 0.5 mg/ml BSA, 100 mM NaCl), and further filled with 15 ml of a scintillation fluid. Receptor-binding [^3H]DHA was measured with a scintillation counter (Beckman). Non-specific binding of [^3H]-DHA was calculated by adding 1 μM of alprenolol (Sigma) in the same binding reaction. The binding degree of [^3H]-DHA was measured as a column graph.

A short description of data set [3]: Critical micelle concentration by fluorescence staining with diphenylhexatriene (DPH). Type of data set: physicochemical. Conditions: aqueous solution. The method, then: While a method for measuring CMC is not particularly limited, a method widely known in the art may be used, and the measurement may be performed by, for example, a fluorescence staining method using diphenylhexatriene (DPH).
as §1

The test system of data set [4] is leucine transporter (LeuT). In words: LeuT long-term stability, [3H]-Leu binding by scintillation proximity assay (SPA). Type of data set: biochemical, Aquifex aeolicus. Conditions: room temperature, 12-day incubation; for LeuT long-term stability (ligand binding activity): CMC+0.04 wt %; for LeuT ligand binding activity maintained: CMC+0.2 wt %. As to the method: An experiment for measuring the structural stability of a LeuT protein due to M-XMAs or O-XMAs was performed. Each amphiphilic compound was used at CMC+0.04 wt % (a) or CMC+0.2 wt % (b), and the ligand-binding activity of LeuT was determined using [^3H]-Leu by scintillation proximity assay (SPA). Measurement was regularly performed at room temperature during a 12-day incubation period.
Specifically, wild-type leucine transporter (LeuT) derived from thermophilic bacteria Aquifex aeolicus was purified according to a previously disclosed protocol (G. Deckert et al., Nature 1998, 392, 353-358). In summary, LeuT was expressed in E. coli C41 (DE3) incubated in lysogeny broth supplemented with 0.1 mg/ml ampicillin. Protein expression was induced by adding isopropyl β-D-thiogalactopyranoside at the final concentration of 0.1 mM. Cell membranes were isolated from disrupted cells (Constant Systems Homogenizers, Kennesaw, Ga.), and solubilized in 1% (w/v) n-dodecyl-β-D-maltopyranoside (DDM; Affymetrix, Santa Clara, Calif.). After solubilization, LeuT was fixed to a chelating Sepharose Fast Flow resin (GE Healthcare), and approximately 90 to 100% pure LeuT was eluted in 20 mM Tris-HCl (pH 7.5), 199 mM KCl, 1 mM NaCl, 0.05% (w/v) DDM and 300 mM imidazole. Afterward, the purified LeuT (approximately 1.2 mg mL^−1) was diluted 10 times with buffer which is the same as that used above and supplemented with M-XMAs and O-XMA, except DDM and imidazole, at the final concentration of CMC+0.04% (w/v) or CMC+0.2% (w/v). DDM and P-XMA-C11 were used as positive controls. Protein samples were stored at room temperature, and protein activity at a predetermined time was determined by measuring [^3H]-Leucine binding using SPA. SPA was performed using a total volume of 100 μL of […] of each protein sample solubilized in a buffer containing 450 mM NaCl, 50 nM [^3H]-Leucine and 0.125 mg ml^−1 copper chelate (His-Tag) YSi beads (Perkin Elmer, Denmark). A [^3H]-Leucine binding degree was measured using a MicroBeta liquid scintillation counter (Perkin Elmer).
(In a scintillation proximity assay essentially only radioactivity close to the scintillant gives light.)

Data set [5] deals with T1, human β2 adrenergic receptor (β2AR). In words: mBBr-β2AR fluorescence spectrum after dilution to CMC or less. Type of data set: biochemical. Conditions: diluted with NH buffer, 30 minutes. The method, then:
An experiment for comparing changes in protein structures of XMAs and DDM at CMC or less of an amphiphilic molecule was carried out.
Specifically, 0.5 μl of an unliganded mBB-labeled receptor solubilized in 20×CMC P-XMA-C11 or P-XMA-C12 at 50 μM was diluted with 500 μl of a NH buffer (20 mM HEPES pH 7.5, 100 mM NaCl). The protein was incubated for 30 minutes, and the mBBr spectrum was measured. The receptor solubilized in 0.1% DDM was diluted with a NH buffer, and used as a control.

Values joined by “and” are separate entries in the source; they are usually repeats but may differ in a detail not shown here. Equal values may be shown once. “Also recorded” adds a separate entry of the source.

T1 sequence (P07550 whole entry): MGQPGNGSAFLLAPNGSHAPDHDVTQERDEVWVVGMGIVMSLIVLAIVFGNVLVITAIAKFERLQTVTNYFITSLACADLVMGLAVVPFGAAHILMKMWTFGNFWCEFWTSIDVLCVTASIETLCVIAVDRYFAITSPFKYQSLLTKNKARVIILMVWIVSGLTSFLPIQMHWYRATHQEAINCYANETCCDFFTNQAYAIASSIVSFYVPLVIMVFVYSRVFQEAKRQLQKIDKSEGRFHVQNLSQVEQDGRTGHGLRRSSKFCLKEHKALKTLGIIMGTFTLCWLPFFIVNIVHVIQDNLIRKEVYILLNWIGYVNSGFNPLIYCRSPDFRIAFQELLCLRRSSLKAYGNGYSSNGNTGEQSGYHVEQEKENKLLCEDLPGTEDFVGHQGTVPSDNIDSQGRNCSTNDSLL

As for `CCCCCCCCCCCC(CO[C@@H]1OC(CO)[C@@H](O[C@H]2OC(CO)[C@@H](O)C(O)C2O)C(O)C1O)(CO[C@@H]1OC(CO)[C@@H](O[C@H]2OC(CO)[C@@H](O)C(O)C2O)C(O)C1O)Cc1cccc(C[C@](CCCCCCCCCCC)(CO[C@@H]2OC(CO)[C@@H](O[C@H]3OC(CO)[C@@H](O)C(O)C3O)C(O)C2O)CO[C@@H]2OC(CO)[C@@H](O[C@@H]3OC(CO)[C@@H](O)C(O)C3O)C(O)C2O)c1` (stereo partly drawn) [M-XMA-C11], in data set [1], the “Rh (nm), hydrodynamic radius of micelles” value was determined as 3.2 ± 0.01 nm. The “[3H]-DHA binding degree of purified β2AR” value in data set [2] was “higher radioactive-ligand binding degree than P-XMA-C11”. Also, in data set [3], the “CMC” value is roughly 6.0 µM and the “CMC (wt %)” value was roughly 0.0011 wt %.

As to `CCCCCCCCCCCCC(CO[C@@H]1OC(CO)[C@@H](O[C@H]2OC(CO)[C@@H](O)C(O)C2O)C(O)C1O)(CO[C@@H]1OC(CO)[C@@H](O[C@H]2OC(CO)[C@@H](O)C(O)C2O)C(O)C1O)Cc1cccc(C[C@](CCCCCCCCCCCC)(CO[C@@H]2OC(CO)[C@@H](O[C@H]3OC(CO)[C@@H](O)C(O)C3O)C(O)C2O)CO[C@@H]2OC(CO)[C@@H](O[C@@H]3OC(CO)[C@@H](O)C(O)C3O)C(O)C2O)c1` (stereo partly drawn) [M-XMA-C12], the “Rh (nm), hydrodynamic radius of micelles” value in data set [1] is 3.4 ± 0.02 nm. In addition, in data set [4], the “LeuT long-term stability (ligand binding activity)” value is reported as “substantial reinforcement of long-term stability of LeuT, compared with DDM; also recorded: higher stability than O-XMA-C12” and the “LeuT ligand binding activity maintained” value is recorded as “superior at maintaining the ligand binding activity of LeuT compared to DDM; also recorded: generally better performance than O-XMA-C12”. The “[3H]-DHA binding degree of purified β2AR” value in data set [2] was “superior to O-XMA-C12, and similar to DDM”. Moreover, in data set [3], the “CMC” value is roughly 4.0 µM and the “CMC (wt %)” value was roughly 0.0008 wt %.

For the molecule `CCCCCCCCCCCC(CO[C@@H]1OC(CO)[C@@H](O[C@H]2OC(CO)[C@@H](O)C(O)C2O)C(O)C1O)(CO[C@@H]1OC(CO)[C@@H](O[C@H]2OC(CO)[C@@H](O)C(O)C2O)C(O)C1O)Cc1ccc(CC(CCCCCCCCCCC)(CO[C@@H]2OC(CO)[C@@H](O[C@H]3OC(CO)[C@@H](O)C(O)C3O)C(O)C2O)CO[C@@H]2OC(CO)[C@@H](O[C@H]3OC(CO)[C@@H](O)C(O)C3O)C(O)C2O)cc1` (stereo partly drawn) [P-XMA-C11], in data set [1], the “Rh (nm), hydrodynamic radius of micelles” value is given as 3.3 ± 0.03 nm. Moreover, the “size distribution of micelles (number of micelle sets)” value in data set [1] (FIGS. 36 and 37) is listed as “two sets of micelles having different radii”. The “structural change of β2AR on dilution to CMC or less” value in data set [5] is “less structural change”. Also, the “[3H]-DHA binding degree of purified β2AR” value in data set [2] is “radioactive-ligand binding degree similar to the receptor purified by DDM”. Further, in data set [3], the “CMC” value is ~3 µM and ~3.0 µM; the “CMC (wt %)” value was roughly 0.0006 wt %.

With `CCCCCCCCCCCCC(CO[C@@H]1OC(CO)[C@@H](O[C@@H]2OC(CO)[C@@H](O)C(O)C2O)C(O)C1O)(CO[C@@H]1OC(CO)[C@@H](O[C@@H]2OC(CO)[C@@H](O)C(O)C2O)C(O)C1O)Cc1ccccc1CC(CCCCCCCCCCCC)(CO[C@@H]1OC(CO)[C@@H](O[C@@H]2OC(CO)[C@@H](O)C(O)C2O)C(O)C1O)CO[C@@H]1OC(CO)[C@@H](O[C@@H]2OC(CO)[C@@H](O)C(O)C2O)C(O)C1O` (stereo partly drawn) [O-XMA-C12], the “Rh (nm), hydrodynamic radius of micelles” value in data set [1] worked out at 3.2 ± 0.03 nm. For the same molecule, in data set [4], the “LeuT long-term stability (ligand binding activity)” value was “substantial reinforcement of long-term stability of LeuT, compared with DDM” and the “LeuT ligand binding activity maintained” value is listed as “superior at maintaining the ligand binding activity of LeuT compared to DDM”. Further, in data set [3], the “CMC” value is roughly 6.0 µM and the “CMC (wt %)” value was roughly 0.0011 wt %.

Source of the values: patent publication US10647738B2, “Xylene-based amphiphilic compound and use thereof” (Industry-University Cooperation Foundation Hanyang …, priority 2016, dated 2020).
